Laboratory results: ChEMBL document CHEMBL1201862, “PubChem BioAssay data set” (2004)
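In this assay, cells in 96-well plates receive the compound at five concentrations for 48 hours. Endpoints are linearly interpolated between the surrounding concentrations. GI50 is the concentration that inhibits growth by half.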 The source made the active and inactive calls. Cut-off read from the data, not from the text of the source: active = GI50 up to about 1.1 µM and inactive = higher.

Experiments:
Experiment in all cases: NCI-60 cell line screen, 48 h
[1] = test system: 786-0
[2] = test system: A498
[3] = test system: A549
[4] = test system: ACHN
[5] = test system: BT-549
[6] = test system: CAKI-1
[7] = test system: COLO 205
[8] = test system: DU-145
[9] = test system: EKVX
[10] = test system: HCC 2998
[11] = test system: HCT-116
[12] = test system: HCT-15
[13] = test system: HL-60
[14] = test system: HOP-62
[15] = test system: HOP-92
[16] = test system: HT-29
[17] = test system: Hs-578T
[18] = test system: IGROV-1
[19] = test system: KM12
[20] = test system: LOX IMVI
[21] = test system: M14
[22] = test system: MCF7
[23] = test system: MDA-MB-231
[24] = test system: MDA-MB-435
[25] = test system: MDA-N
[26] = test system: MOLT-4
[27] = test system: Malme-3M
[28] = test system: NCI-H226
[29] = test system: NCI-H23
[30] = test system: NCI-H460
[31] = test system: NCI-H522
[32] = test system: NCI/ADR-RES
[33] = test system: OVCAR-3
[34] = test system: OVCAR-4
[35] = test system: OVCAR-5
[36] = test system: OVCAR-8
[37] = test system: PC-3
[38] = test system: RPMI-8226
[39] = test system: RXF 393
[40] = test system: SF-268
[41] = test system: SF-295
[42] = test system: SF-539
[43] = test system: SK-MEL-28
[44] = test system: SK-MEL-2
[45] = test system: SK-MEL-5
[46] = test system: SK-OV-3
[47] = test system: SN12C
[48] = test system: SNB-19
[49] = test system: SNB-75
[50] = test system: SR
[51] = test system: SW-620
[52] = test system: T47D
[53] = test system: TK-10
[54] = test system: U-251
[55] = test system: UACC-257
[56] = test system: UACC-62
[57] = test system: UO-31
[58] = test system: CCRF-CEM
[59] = test system: K562

Measured: GI50

COc1ccc(/N=N/c2ccc3oc(=O)c(C(=O)Nc4ccccc4)cc3c2)cc1
inactive: [1] > 10 µM | [2] > 10 µM | [3] > 10 µM | [4] > 5.81 µM | [5] > 10 µM | [6] > 10 µM | [7] > 10 µM | [8] > 6.85 µM | [9] > 10 µM | [10] > 10 µM | [11] > 10 µM | [13] 3.16 µM | [14] > 10 µM | [15] > 10 µM | [16] > 10 µM | [17] > 10 µM | [18] > 10 µM | [19] > 10 µM | [20] > 10 µM | [21] > 10 µM | [22] > 9.29 µM | [23] > 10 µM | [24] > 10 µM | [25] > 10 µM | [26] 6.4 µM | [27] > 10 µM | [28] > 10 µM | [29] > 10 µM | [30] > 10 µM | [31] > 10 µM | [32] > 10 µM | [33] > 10 µM | [34] > 10 µM | [35] > 10 µM | [36] > 8.51 µM | [37] > 6.01 µM | [38] > 10 µM | [39] > 10 µM | [40] > 8.32 µM | [41] > 10 µM | [42] > 9.31 µM | [43] > 10 µM | [44] > 10 µM | [45] > 10 µM | [46] > 10 µM | [47] > 10 µM | [48] > 10 µM | [49] > 9.31 µM | [50] > 10 µM | [51] > 10 µM | [52] 4.5 µM | [53] > 10 µM | [54] > 10 µM | [55] > 10 µM | [56] > 10 µM | [57] 5.52 µM
> 9.23 µM: [12]

COc1cccc2c1/c(=C/c1ccc(N(C)C)cc1)c1cc(-c3ccccc3)[n+](C)n12
0.471 µM: [12]
active: [1] 0.074 µM | [2] 0.305 µM | [3] 0.112 µM | [4] 0.216 µM | [5] 0.0875 µM | [6] 0.804 µM | [58] 0.0571 µM | [7] 0.0272 µM | [8] 0.0986 µM | [10] 0.0348 µM | [11] 0.107 µM | [13] 0.0155 µM | [14] 0.218 µM | [15] 0.0414 µM | [16] 0.0736 µM | [17] 0.147 µM | [18] 0.083 µM | [59] 0.0493 µM | [19] 0.107 µM | [20] 0.153 µM | [21] 0.126 µM | [22] 0.0957 µM | [23] 0.259 µM | [24] 0.0773 µM | [25] 0.0826 µM | [26] 0.0897 µM | [27] 0.221 µM | [28] 0.177 µM | [29] 0.131 µM | [30] 0.106 µM | [31] 0.168 µM | [33] 0.0857 µM | [34] 0.344 µM | [35] 0.509 µM | [36] 0.0446 µM | [37] 0.0321 µM | [38] 0.0202 µM | [39] 0.528 µM | [40] 0.109 µM | [41] 0.0813 µM | [42] 0.169 µM | [43] 0.239 µM | [44] 0.131 µM | [45] 0.155 µM | [46] 0.223 µM | [47] 0.0331 µM | [48] 0.0933 µM | [49] 0.189 µM | [50] 0.0385 µM | [51] 0.0421 µM | [52] 0.0964 µM | [53] 0.165 µM | [54] < 0.0158 µM | [55] 0.113 µM | [56] 0.182 µM | [57] 0.295 µM
inactive: [32] 3.19 µM

COC(=O)/C(C#N)=C(\Nc1ccccc1)N1CCOCC1
inactive: [1] > 100 µM | [2] > 100 µM | [3] > 100 µM | [4] > 100 µM | [5] > 100 µM | [6] > 100 µM | [7] > 100 µM | [8] > 100 µM | [9] > 100 µM | [10] > 100 µM | [11] > 100 µM | [13] > 100 µM | [14] > 100 µM | [15] > 100 µM | [16] > 100 µM | [17] > 100 µM | [18] > 100 µM | [59] > 100 µM | [20] > 100 µM | [21] > 100 µM | [22] > 100 µM | [23] > 100 µM | [24] > 100 µM | [25] > 100 µM | [26] > 100 µM | [27] > 100 µM | [28] > 100 µM | [29] > 100 µM | [30] > 100 µM | [31] > 100 µM | [32] > 100 µM | [33] > 100 µM | [34] > 100 µM | [35] > 100 µM | [36] > 100 µM | [37] > 100 µM | [38] > 100 µM | [39] > 100 µM | [40] > 100 µM | [41] > 100 µM | [42] > 100 µM | [43] > 100 µM | [44] > 100 µM | [45] > 100 µM | [46] > 100 µM | [47] > 100 µM | [48] > 100 µM | [49] > 100 µM | [50] > 100 µM | [51] > 100 µM | [52] > 100 µM | [53] > 100 µM | [54] > 100 µM | [55] > 100 µM | [57] > 100 µM
> 100 µM: [12]
